Structures can show the parent of a compound that is named as a salt.
How the values were obtained:
JH2 domain of human Tyk2 = target: T1, JH2 domain of human Tyk2 (Homo sapiens, UniProt P29597); experiment: JH2 biochemical assay (TR-FRET probe displacement); type: binding
T1 construct: 10×His-tagged TYK2 JH2 domain (amino acid 575-876)
Outline: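 10×His-tagged human TYK2 JH2 (aa 575-876, 2 nM) incubated 60 min with 2 nM fluorescent probe, 0.1 nM Tb anti-His antibody and compound (10-point 3-fold series from […] top). TR-FRET 520/495 nm ratio, falling with probe displacement, normalized and fitted to a 4-parameter logistic for IC50.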

[1] = test system: Tyk2 kinase activity on STAT4; experiment: pSTAT4 cell assay (MSD, NK92 cells); type: cell-based; settings: compounds 1 hr
Outline: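 Serum-starved NK92 cells, which natively express Tyk2 and STAT4, were pretreated for 1 h with a 10-point 4-fold dilution series from 10 μM. They were then stimulated with 30 ng/mL IL2 for 15 min. Phospho-STAT in lysates was quantified by MSD with anti-STAT4 antibodies, and IC50 was obtained from 4-parameter logistic fits.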

[2] = test system: JAK2 kinase activity on STAT5; experiment: pSTAT5 cell assay (MSD, TF1 cells, IL-3 stimulated); type: cell-based; settings: Homo sapiens, TF-1, compounds 1 hour, 30 ng/mL IL-3 for 15 minutes
Procedure: Compounds of the disclosure were assessed for their ability to inhibit the JAK2 kinase activity on STAT5 utilizing an MSD-platform plate-based assay format. TF1 cells natively expressing STAT5 and JAK2 were serum-starved to reduce background phosphorylation levels, then cells were treated with compounds of disclosure for 1 hour with a 10-point four-fold dilution series starting at 10 μM. Cells were then stimulated with 30 ng/mL IL-3 for 15 minutes. Cells were then lysed and pSTAT5 levels were quantitated using an MSD plate-based assay with anti-STAT5 antibodies. The data were normalized and the percent activity versus log concentration of compound was fitted with a 4-parameter logistic model to generate a curve and an IC50 value.

[3] = test system: JAK1 kinase activity on STAT3; experiment: pSTAT3 cell assay (MSD, TF1 cells, IL-6 stimulated); type: cell-based; settings: Homo sapiens, TF-1, compounds 1 hour, 30 ng/mL IL-6 for 15 minutes
Procedure: The inhibitory potency of compounds of the disclosure against the JAK1 kinase activity on STAT3 was evaluated using an MSD-platform plate-based assay format. TF1 cells natively expressing STAT3 and JAK1 were serum-starved to reduce background phosphorylation levels, then cells were treated with compounds of the disclosure for 1 hour with a 10-point four-fold dilution series starting at 10 μM. Cells were then stimulated with 30 ng/mL interleukin 6 (IL-6) for 15 minutes. Cells were lysed and pSTAT3 levels were quantitated using an MSD plate-based assay with anti-STAT3 antibodies. The data were normalized and the percent activity versus log concentration of compound was fitted with a 4-parameter logistic model to generate IC50 curves.

[4] = TR-FRET probe displacement, JH2 domain of human Tyk2

T1 sequence (P29597 575-876): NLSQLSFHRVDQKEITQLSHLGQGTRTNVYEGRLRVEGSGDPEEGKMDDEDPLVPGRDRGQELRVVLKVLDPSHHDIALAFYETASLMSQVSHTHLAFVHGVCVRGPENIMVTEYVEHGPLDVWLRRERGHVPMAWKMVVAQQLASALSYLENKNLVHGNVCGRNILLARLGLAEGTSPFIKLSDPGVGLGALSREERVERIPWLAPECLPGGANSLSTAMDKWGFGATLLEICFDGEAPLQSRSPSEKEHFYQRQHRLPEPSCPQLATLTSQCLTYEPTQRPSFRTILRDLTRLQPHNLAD

SMILES	IC50 (JH2 domain of human Tyk2; JH2 biochemical assay) [nM]	IC50 ([1]; stimulated 15 minutes) [nM]	IC50 [2] [nM]	IC50 [3] [nM]	IC50 (JH2 domain of human Tyk2; [4]) [nM]	IC50 ([1]; then stimulated 15 minutes) [nM]
COc1cc(N2CC3(CC3)c3cnc(NC(C)=O)cc32)nc(C(C)(F)F)n1 [Example 1, N-(1′-(2-(1,1-difluoroethyl)-6-methoxypyrimidin-4-yl)-1′,2′-dihydrospiro[cyclopropane-1,3′-pyrrolo[3,2-c]pyridin]-6′-yl)acetamide]	≤ 10	100 to 1000	≥ 1000	≥ 1000	–	–
CC(=O)Nc1cc2c(cn1)C1(CCN(C)CC1)CN2c1cccc(C(C)(F)F)n1 [Example 276, N-(1′-(6-(1,1-difluoroethyl)pyridin-2-yl)-1-methyl-1′,2′-dihydrospiro[piperidine-4,3′-pyrrolo[3,2-c]pyridin]-6′-yl)acetamide trifluoroacetate]	≥ 1000	–	≥ 1000	≥ 1000	–	–
CC(=O)Nc1cc2c(cn1)C1(CC1)CN2c1cc(-c2cnn(CCN3CCOCC3)c2)nc(C(C)(F)F)n1 [Example 390, N-(1′-(2-(1,1-difluoroethyl)-6-(1-(2-morpholinoethyl)-1H-pyrazol-4-yl)pyrimidin-4-yl)-1′,2′-dihydrospiro[cyclopropane-1,3′-pyrrolo[3,2-c]pyridin]-6′-yl)acetamide trifluoroacetate]	–	–	–	–	≤ 10	≤ 10
CC(=O)Nc1cc2c(cn1)C1(CC1)CN2c1cc(-c2cnn(CCN(C)C)c2)nc(C(C)(F)F)n1 [Example 391, N-(1′-(2-(1,1-difluoroethyl)-6-(1-(2-(dimethylamino)ethyl)-1H-pyrazol-4-yl)pyrimidin-4-yl)-1′,2′-dihydrospiro[cyclopropane-1,3′-pyrrolo[3,2-c]pyridin]-6′-yl)acetamide trifluoroacetate]	–	–	–	–	≤ 10	10 to 100
CC(=O)Nc1cc2c(cn1)C1(CC1)CN2c1cc(-c2cnn(CC(F)(F)F)c2)nc(C(C)(F)F)n1 [Example 392, N-(1′-(2-(1,1-difluoroethyl)-6-(1-(2,2,2-trifluoroethyl)-1H-pyrazol-4-yl)pyrimidin-4-yl)-1′,2′-dihydrospiro[cyclopropane-1,3′-pyrrolo[3,2-c]pyridin]-6′-yl)acetamide]	–	–	–	–	≤ 10	≤ 10
COCCn1cc(-c2cc(N3CC4(CC4)c4cnc(NC(C)=O)cc43)nc(C(C)(F)F)n2)cn1 [Example 394, N-(1′-(2-(1,1-difluoroethyl)-6-(1-(2-methoxyethyl)-1H-pyrazol-4-yl)pyrimidin-4-yl)-1′,2′-dihydrospiro[cyclopropane-1,3′-pyrrolo[3,2-c]pyridin]-6′-yl)acetamide]	–	–	–	–	≤ 10	≤ 10
CC(=O)Nc1cc2c(cn1)C1(CC1)CN2c1cc(-c2cn[nH]c2)nc(C(C)(F)F)n1 [Example 395, N-(1′-(2-(1,1-difluoroethyl)-6-(1H-pyrazol-4-yl)pyrimidin-4-yl)-1′,2′-dihydrospiro[cyclopropane-1,3′-pyrrolo[3,2-c]pyridin]-6′-yl)acetamide trifluoroacetate]	–	–	–	–	≤ 10	10 to 100
CC(=O)Nc1cc2c(cn1)C1(CC1)CN2c1cc(C)nc(C2COC2)n1 [Example 396, N-(1′-(6-methyl-2-(oxetan-3-yl)pyrimidin-4-yl)-1′,2′-dihydrospiro[cyclopropane-1,3′-pyrrolo[3,2-c]pyridin]-6′-yl)acetamide]	–	–	–	–	10 to 100	≥ 1000
COCc1cc(N2CC3(CC3)c3cnc(NC(C)=O)cc32)nc(C(C)(F)F)n1 [Example 397, N-(1′-(2-(1,1-difluoroethyl)-6-(methoxymethyl)pyrimidin-4-yl)-1′,2′-dihydrospiro[cyclopropane-1,3′-pyrrolo[3,2-c]pyridin]-6′-yl)acetamide]	–	–	–	–	≤ 10	100 to 1000
CC(=O)Nc1cc2c(cn1)C1(CC1)CN2c1cc(C(C)(C)F)nc(C(C)(F)F)n1 [Example 398, N-(1′-(2-(1,1-difluoroethyl)-6-(2-fluoropropan-2-yl)pyrimidin-4-yl)-1′,2′-dihydrospiro[cyclopropane-1,3′-pyrrolo[3,2-c]pyridin]-6′-yl)acetamide]	–	–	–	–	≤ 10	10 to 100
CC(=O)Nc1cc2c(cn1)C1(CC1)CN2c1cc(C(C)(C)O)nc(C(C)(F)F)n1 [Example 399, N-(1′-(2-(1,1-difluoroethyl)-6-(2-hydroxypropan-2-yl)pyrimidin-4-yl)-1′,2′-dihydrospiro[cyclopropane-1,3′-pyrrolo[3,2-c]pyridin]-6′-yl)acetamide]	–	–	–	–	≤ 10	10 to 100
CC(=O)Nc1cc2c(cn1)C1(CC1)CN2c1cc(C(C)F)nc(C(C)(F)F)n1 (centres unmarked) [Example 400, N-(1′-(2-(1,1-difluoroethyl)-6-(1-fluoroethyl)pyrimidin-4-yl)-1′,2′-dihydrospiro[cyclopropane-1,3′-pyrrolo[3,2-c]pyridin]-6′-yl)acetamide]	–	–	–	–	≤ 10	10 to 100
COCC(F)(F)c1nc(C)cc(N2CC3(CC3)c3cnc(NC(C)=O)cc32)n1 [Example 401, N-(1′-(2-(1,1-difluoro-2-methoxyethyl)-6-methylpyrimidin-4-yl)-1′,2′-dihydrospiro[cyclopropane-1,3′-pyrrolo[3,2-c]pyridin]-6′-yl)acetamide trifluoroacetate]	–	–	–	–	10 to 100	≥ 1000
CC(=O)Nc1cc2c(cn1)C1(CC1)CN2c1cc(C)cc(N2CC[C@H](C#N)C2)n1 [Example 402, (S)-N-(1′-(6-(3-cyanopyrrolidin-1-yl)-4-methylpyridin-2-yl)-1′,2′-dihydrospiro[cyclopropane-1,3′-pyrrolo[3,2-c]pyridin]-6′-yl)acetamide]	–	–	–	–	10 to 100	≥ 1000
CC(=O)Nc1cc2c(cn1)C1(CC1)CN2c1cc(C)cc(N2CC[C@@H](C#N)C2)n1 [Example 403, (R)-N-(1′-(6-(3-cyanopyrrolidin-1-yl)-4-methylpyridin-2-yl)-1′,2′-dihydrospiro[cyclopropane-1,3′-pyrrolo[3,2-c]pyridin]-6′-yl)acetamide]	–	–	–	–	≤ 10	100 to 1000
CC(=O)Nc1cc2c(cn1)C1(CC1)CN2c1cc(C)cc(N2CCC(C)(C#N)C2)n1 (centres unmarked) [Example 404, N-(1′-(6-(3-cyano-3-methylpyrrolidin-1-yl)-4-methylpyridin-2-yl)-1′,2′-dihydrospiro[cyclopropane-1,3′-pyrrolo[3,2-c]pyridin]-6′-yl)acetamide]	–	–	–	–	10 to 100	≥ 1000
CC(=O)Nc1cc2c(cn1)C1(CC1)CN2c1cc(C)cc(N2CCC(C)(O)C2)n1 (centres unmarked) [Example 405, N-(1′-(6-(3-hydroxy-3-methylpyrrolidin-1-yl)-4-methylpyridin-2-yl)-1′,2′-dihydrospiro[cyclopropane-1,3′-pyrrolo[3,2-c]pyridin]-6′-yl)acetamide trifluoroacetate]	–	–	–	–	100 to 1000	≥ 1000
CC(=O)Nc1cc2c(cn1)C1(CC1)CN2c1cc(C)cc(N2CCN(CCO)CC2)n1 [Example 406, N-(1′-(6-(4-(2-hydroxyethyl)piperazin-1-yl)-4-methylpyridin-2-yl)-1′,2′-dihydrospiro[cyclopropane-1,3′-pyrrolo[3,2-c]pyridin]-6′-yl)acetamide]	–	–	–	–	100 to 1000	≥ 1000
CC(=O)Nc1cc2c(cn1)C1(CC1)CN2c1cc(C)nc(N2CC[C@@H](C#N)C2)n1 [Example 407, (R)-N-(1′-(2-(3-cyanopyrrolidin-1-yl)-6-methylpyrimidin-4-yl)-1′,2′-dihydrospiro[cyclopropane-1,3′-pyrrolo[3,2-c]pyridin]-6′-yl)acetamide]	–	–	–	–	≤ 10	100 to 1000
CC(=O)Nc1cc2c(cn1)C1(CC1)CN2c1cc(C)nc(N2CC[C@H](C#N)C2)n1 [Example 408, (S)-N-(1′-(2-(3-cyanopyrrolidin-1-yl)-6-methylpyrimidin-4-yl)-1′,2′-dihydrospiro[cyclopropane-1,3′-pyrrolo[3,2-c]pyridin]-6′-yl)acetamide]	–	–	–	–	10 to 100	100 to 1000
CC(=O)Nc1cc2c(cn1)C1(CC1)CN2c1cc(C)nc(N2CCC(C)(C#N)C2)n1 (centres unmarked) [Example 409, N-(1′-(2-(3-cyano-3-methylpyrrolidin-1-yl)-6-methylpyrimidin-4-yl)-1′,2′-dihydrospiro[cyclopropane-1,3′-pyrrolo[3,2-c]pyridin]-6′-yl)acetamide]	–	–	–	–	10 to 100	≥ 1000
CC(=O)Nc1cc2c(cn1)C1(CC1)CN2c1cc(C)nc(N2CC(CC(C)C)C2)n1 [Example 410, N-(1′-(2-(3-isobutylazetidin-1-yl)-6-methylpyrimidin-4-yl)-1′,2′-dihydrospiro[cyclopropane-1,3′-pyrrolo[3,2-c]pyridin]-6′-yl)acetamide trifluoroacetate]	–	–	–	–	≥ 1000	100 to 1000

Source: patent publication US20260258032A1, “TYROSINE KINASE 2 INHIBITORS AND USES THEREOF” (BIOGEN MA INC., priority 2022, published 2026)
